Tested on: Donor 4 COP Responsive T-Cell Lines
Test: Multiplex bead cytokine assay (FlowCytomix), Donor 4 COP responsive T-cell lines
Format: cell-based, human
Set-up: IFN-γ / 1L-9 / IL-22 / IL-13: unit not given here
Conditions: for cytokine secretion: most tested Donor 4 cell lines, 20-24 hours
Experimental: The concentration of multiple cytokines was measured simultaneously using FlowCytoMix™ kits (eBioscience, San Diego Calif.). These are fluorescent bead based assays consisting of beads conjugated to anti cytokine antibodies. Beads specific for each cytokine are distinguished by size and fluorescence at 670 run. Cytokine bound to each bead is detected using a phycoerythrin conjugated antibody so that the fluorescence at 585 nm reflects the concentration of cytokine in the sample. Two kits were utilized which measured different cytokine panels. The TH1/TH2 kit measures IFN-γ, IL-1β, IL-2, IL-4, IL-5, IL-6, IL-8, IL-10, IL-12p70, TNF-α (TNF) and TNF-β (LT). The TH1/TH2/TH9/TH17/TH22 kit measures […], IL-1β, IL-2, IL-4, IL-5, IL-6, IL-9, IL-10, IL-12p70, IL-13, IL-17, IL-22, and TNF-α (TNF). Both kits were used following the manufacturer's instructions.
On Day 23 the positive wells (cell lines listed in Table 26) were transferred to a 24-well plate and restimulated with 10 μg/mL COP in the presence of mitomycin-treated autologous PBMC. IL-2 was added at Day 24. On Day 31 (after four rounds of restimulation) ten lines were restimulated with 10 μg/mL COP to confirm antigen reactivity by a cytokine secretion assay. T-cells were added at 2×10^4 cells/well in 96-well plates in X-VIVO 15 medium. Each line was separately stimulated with 10 μg/mL GMA, and 10 μg/mL COP in the presence of (2×10^5 cells/well, i.e., 1×10^6 cells/mL) mitomycin-treated autologous PBMC. Culture medium was collected after 20-24 hours for cytokine assay (FlowCytomix multiplex bead assay). The supernatants were tested in triplicate for IL-12 p70, IFN-γ, IL-2, IL-10, IL-6, IL-4, IL-5, TNF-α, and TNF-β secretion. […] Secretion of IL-2, 11-10, and IL-4 varied among the lines. All samples also secreted IL-8 (data not shown).
Culture medium from each of two Donor 4 cell lines was assayed for an extended panel of cytokines, showing production of IL-13 and IL-22 (Table 32).

[1] = T-cell line 1H9, 10 μg/mL, Day 31, medium after 20-24 hours
[2] = T-cell line 1H11, 10 μg/mL, Day 31, medium after 20-24 hours
[3] = T-cell line 205-1B4, extended cytokine multiplex assay
[4] = T-cell line 205-1B7, 10 μg/mL, Day 31, medium after 20-24 hours
[5] = T-cell line 205-1C4, 10 μg/mL, Day 31, medium after 20-24 hours
[6] = T-cell line 205-1F4, extended cytokine multiplex assay
[7] = T-cell line 205-1F5, 10 μg/mL, Day 31, medium after 20-24 hours
[8] = T-cell line 205-1G3, 10 μg/mL, Day 31, medium after 20-24 hours
[9] = T-cell line 205-1H5, 10 μg/mL, Day 31, medium after 20-24 hours
[10] = T-cell line 205-1H7, 10 μg/mL, Day 31, medium after 20-24 hours

## glatiramer acetate [COP]
[1]
  IFN-y: 419.21 pg/mL
  IL-2: <=0 pg/mL
  IL-4: <=0 pg/mL
  IL-5: <=0 pg/mL
  IL-6: <=0 pg/mL
  IL-10: <=0 pg/mL
  IL-12 p70: <=0 pg/mL
  TNF-α: 159.6 pg/mL
  TNF-β: <=0 pg/mL
[2]
  IFN-y: 1016.21 pg/mL
  IL-2: 44.94 pg/mL
  IL-4: 2.09 pg/mL
  IL-5: 3665.58 pg/mL
  IL-6: 20.11 pg/mL
  IL-10: 143.84 pg/mL
  IL-12 p70: 3.68 pg/mL
  TNF-α: 754.13 pg/mL
  TNF-β: 1.55 pg/mL
[3]
  1L-9: 29
  IFN-γ: 726
  IL-2: 0
  IL-4: 174
  IL-5: 3660
  IL-6: 114
  IL-10: 32
  IL-13: 19288
  IL-22: 668
  TNF-α: 1336
[4]
  IFN-y: 935.78 pg/mL
  IL-2: 27.99 pg/mL
  IL-4: 200.19 pg/mL
  IL-5: 7199.83 pg/mL
  IL-6: 195.27 pg/mL
  IL-10: 210.01 pg/mL
  IL-12 p70: 18.39 pg/mL
  TNF-α: 1286.09 pg/mL
  TNF-β: 244.68 pg/mL
[5]
  IFN-y: 1212.03 pg/mL
  IL-2: 478.51 pg/mL
  IL-4: 199.97 pg/mL
  IL-5: 6457.14 pg/mL
  IL-6: 159.24 pg/mL
  IL-10: 50.31 pg/mL
  IL-12 p70: 51.14 pg/mL
  TNF-α: 1529.22 pg/mL
  TNF-β: 69.07 pg/mL
[6]
  1L-9: 10
  IFN-γ: 1393
  IL-2: 110
  IL-4: 10
  IL-5: 1440
  IL-6: 77
  IL-10: 0
  IL-13: 4502
  IL-22: 168
  TNF-α: 616
[7]
  IFN-y: 452.76 pg/mL
  IL-2: 205.85 pg/mL
  IL-4: 293.46 pg/mL
  IL-5: 13727.89 pg/mL
  IL-6: 318.25 pg/mL
  IL-10: 323.52 pg/mL
  IL-12 p70: 55.94 pg/mL
  TNF-α: 833.39 pg/mL
  TNF-β: 278.68 pg/mL
[8]
  IFN-y: 211.16 pg/mL
  IL-2: 10.89 pg/mL
  IL-4: <=0 pg/mL
  IL-5: 91.11 pg/mL
  IL-6: 11.79 pg/mL
  IL-10: <=0 pg/mL
  IL-12 p70: <=0 pg/mL
  TNF-α: 38.56 pg/mL
  TNF-β: <=0 pg/mL
[9]
  IFN-y: 1149.77 pg/mL
  IL-2: 15.14 pg/mL
  IL-4: 79.67 pg/mL
  IL-5: 3106.45 pg/mL
  IL-6: 57.31 pg/mL
  IL-10: 28.45 pg/mL
  IL-12 p70: 7.96 pg/mL
  TNF-α: 1260.75 pg/mL
  TNF-β: 88.62 pg/mL
[10]
  IFN-y: 1617.25 pg/mL
  IL-2: 351.63 pg/mL
  IL-4: 90.37 pg/mL
  IL-5: 101.71 pg/mL
  IL-6: 69.44 pg/mL
  IL-10: 10.06 pg/mL
  IL-12 p70: 11.11 pg/mL
  TNF-α: 1924.81 pg/mL
  TNF-β: 49.17 pg/mL
Day 31, 10 μg/mL
  cytokine secretion: secreted IFN-γ, IL-5, and TNF-α

## glatiramer acetate [GMA]
[1]
  IFN-y: 182.77 pg/mL
  IL-2: <=0 pg/mL
  IL-4: <=0 pg/mL
  IL-5: <=0 pg/mL
  IL-6: 74.92 pg/mL
  IL-10: <=0 pg/mL
  IL-12 p70: <=0 pg/mL
  TNF-α: 161.89 pg/mL
  TNF-β: <=0 pg/mL
[2]
  IFN-y: 929 pg/mL
  IL-2: 22.78 pg/mL
  IL-4: <=0 pg/mL
  IL-5: 3349.8 pg/mL
  IL-6: 28.28 pg/mL
  IL-10: 145 pg/mL
  IL-12 p70: 2.24 pg/mL
  TNF-α: 609.49 pg/mL
  TNF-β: <=0 pg/mL
[3]
  1L-9: 21
  IFN-γ: 713
  IL-2: 0
  IL-4: 117
  IL-5: 3104
  IL-6: 109
  IL-10: 25
  IL-13: 13895
  IL-22: 478
  TNF-α: 868
[4]
  IFN-y: 828.5 pg/mL
  IL-2: 10.89 pg/mL
  IL-4: 187.29 pg/mL
  IL-5: 6854.13 pg/mL
  IL-6: 187.85 pg/mL
  IL-10: 182.81 pg/mL
  IL-12 p70: 44.57 pg/mL
  TNF-α: 1305.37 pg/mL
  TNF-β: 217.5 pg/mL
[5]
  IFN-y: 1046.32 pg/mL
  IL-2: 312.13 pg/mL
  IL-4: 124.7 pg/mL
  IL-5: 5434.06 pg/mL
  IL-6: 149.35 pg/mL
  IL-10: 45.24 pg/mL
  IL-12 p70: 46.89 pg/mL
  TNF-α: 1059.01 pg/mL
  TNF-β: 81.04 pg/mL
[6]
  1L-9: 7
  IFN-γ: 1207
  IL-2: 76
  IL-4: 7
  IL-5: 1459
  IL-6: 73
  IL-10: 16
  IL-13: 4506
  IL-22: 186
  TNF-α: 323
[7]
  IFN-y: 479.26 pg/mL
  IL-2: 197.46 pg/mL
  IL-4: 328.72 pg/mL
  IL-5: 13930.97 pg/mL
  IL-6: 314.54 pg/mL
  IL-10: 231.63 pg/mL
  IL-12 p70: 67.53 pg/mL
  TNF-α: 1084.01 pg/mL
  TNF-β: 260.35 pg/mL
[8]
  IFN-y: 193.91 pg/mL
  IL-2: 5.27 pg/mL
  IL-4: <=0 pg/mL
  IL-5: 121.17 pg/mL
  IL-6: 16.67 pg/mL
  IL-10: <=0 pg/mL
  IL-12 p70: 2.37 pg/mL
  TNF-α: 68.79 pg/mL
  TNF-β: 17.66 pg/mL
[9]
  IFN-y: 902.95 pg/mL
  IL-2: <=0 pg/mL
  IL-4: 46.82 pg/mL
  IL-5: 2534.09 pg/mL
  IL-6: 52.4 pg/mL
  IL-10: <=0 pg/mL
  IL-12 p70: 8.78 pg/mL
  TNF-α: 910.83 pg/mL
  TNF-β: 79.8 pg/mL
[10]
  IFN-y: 1275.97 pg/mL
  IL-2: 176.52 pg/mL
  IL-4: 58.41 pg/mL
  IL-5: 96.95 pg/mL
  IL-6: 64.82 pg/mL
  IL-10: <=0 pg/mL
  IL-12 p70: 13.42 pg/mL
  TNF-α: 552.89 pg/mL
  TNF-β: 34.81 pg/mL
Day 31, 10 μg/mL
  cytokine secretion: secreted IFN-γ, IL-5, and TNF-α

Source: patent US9995734B2, “Human T cell line assay for evaluating the immunologic identity of glatiramer acetate preparations” (Mylan Inc., priority 2013, dated 2018)
